Reference: article PMC9721424, “Novel N-methylsulfonyl-indole derivatives: biological activity and COX-2/5-LOX inhibitory effect with improved gastro protective profile and reduced cardio vascular risks” (Journal of Enzyme Inhibition and Medicinal Chemistry, 2022)
Values joined by “and” are separate entries in the source; they are usually repeats but may differ in a detail not shown here. Identical values can stand only once. Like-named read-outs stand apart in the source and are kept apart here.

Legend:
[1] = test system: Escherichia coli (E. coli) (ATCC 25922); test: Disc diffusion antimicrobial screening, E. coli; format: cell-based; conditions: for antibacterial activity against E. coli: 100 µg/disc
Description: All compounds were screened for their antimicrobial activity at the Microbiology and Immunology Department, Faculty of Pharmacy, Beni-Suef University. The antimicrobial activity screening was carried out using the disc diffusion method, as described earlier, with some adjustments.
For each indicator microbe, a solution of half McFarland turbidity was prepared in sterile saline, followed by surface streaking of the strains on Mueller-Hinton agar with a sterile cotton swab. Then, sterile filter paper discs (5 mm diameter) preloaded with 100 µg of each compound were applied to the surface of the pre-inoculated plates. Then, the plates were chilled at 4 °C for 100 min before being incubated overnight at the proper temperature for microbial growth. Finally, the diameter of the inhibition zones around each disc was measured to evaluate the antimicrobial activity of the compounds. Ciprofloxacin was used as a standard antibacterial agent at a concentration of 20 µg/disc. Furthermore, DMSO-loaded discs were used as a negative control.

COX-2 = target: T1, COX-2 (Ovis aries, UniProt P79208); test: COX-2 inhibition, enzyme immune assay (EIA) kit; format: biochemical, ovine; conditions: for S.I (IC50 COX-1/IC50 COX-2): COX-2 selectivity index; for SI: lab report, COX1/COX2
T1 sequence (P79208 17-603): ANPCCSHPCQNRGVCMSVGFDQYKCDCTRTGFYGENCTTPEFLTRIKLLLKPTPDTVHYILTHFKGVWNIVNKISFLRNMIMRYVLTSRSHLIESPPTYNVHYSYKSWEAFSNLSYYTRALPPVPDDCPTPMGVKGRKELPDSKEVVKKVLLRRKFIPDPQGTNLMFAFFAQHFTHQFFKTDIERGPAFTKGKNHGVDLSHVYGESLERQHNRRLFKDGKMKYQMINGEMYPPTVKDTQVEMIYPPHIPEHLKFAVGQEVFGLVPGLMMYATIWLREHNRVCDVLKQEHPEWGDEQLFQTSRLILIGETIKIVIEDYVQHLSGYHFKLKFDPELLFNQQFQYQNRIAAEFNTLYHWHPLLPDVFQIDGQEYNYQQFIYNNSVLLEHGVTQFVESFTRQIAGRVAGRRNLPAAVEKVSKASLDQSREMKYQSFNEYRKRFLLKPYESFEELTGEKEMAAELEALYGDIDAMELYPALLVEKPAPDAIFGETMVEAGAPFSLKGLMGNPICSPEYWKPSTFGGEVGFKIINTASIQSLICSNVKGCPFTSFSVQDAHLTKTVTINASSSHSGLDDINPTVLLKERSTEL

5-LOX enzyme = target: T2, 5-LOX enzyme (Homo sapiens, UniProt P09917); test: 5-LOX inhibition, Human Lipoxygenase Inhibitor Screening Assay (EIA) kit; format: biochemical
T2 construct: purchased Cayman Chemical K980-100
T2 sequence (P09917 1-674): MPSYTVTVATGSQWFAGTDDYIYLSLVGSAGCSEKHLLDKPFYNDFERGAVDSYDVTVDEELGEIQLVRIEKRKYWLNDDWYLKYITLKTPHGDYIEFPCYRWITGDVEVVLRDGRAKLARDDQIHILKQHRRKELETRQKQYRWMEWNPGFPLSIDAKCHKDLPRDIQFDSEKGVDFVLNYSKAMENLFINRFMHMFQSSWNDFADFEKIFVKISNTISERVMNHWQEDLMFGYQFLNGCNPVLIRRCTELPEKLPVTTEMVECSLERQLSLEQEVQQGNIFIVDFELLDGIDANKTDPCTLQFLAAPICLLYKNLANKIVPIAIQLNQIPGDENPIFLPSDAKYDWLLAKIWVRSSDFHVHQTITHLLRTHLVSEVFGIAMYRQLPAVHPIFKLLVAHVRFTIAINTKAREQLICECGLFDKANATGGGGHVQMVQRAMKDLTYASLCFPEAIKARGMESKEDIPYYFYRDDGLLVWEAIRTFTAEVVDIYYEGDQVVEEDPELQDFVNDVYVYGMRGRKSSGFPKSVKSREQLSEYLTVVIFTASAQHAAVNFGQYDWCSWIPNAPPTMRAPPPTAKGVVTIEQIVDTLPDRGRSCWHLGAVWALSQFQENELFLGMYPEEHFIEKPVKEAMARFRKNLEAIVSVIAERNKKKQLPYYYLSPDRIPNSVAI
Description: The ability of the test compounds to inhibit the 5-LOX enzyme (IC50 value, μM) was detected using the Cayman Human Lipoxygenase Inhibitor Screening Assay (EIA) kit (catalog no. K980-100, Cayman Chemical). The IC50 values of test compounds were measured in µM according to the manufacturer’s instructions and reported method.

stomach = test: Histopathological examination of stomach; format: in vivo, rats; conditions: rats, H&E stain
Description: In brief, the stomachs of each animal group’s rat were fixed in 10% neutral buffered formalin for 48 h. The sections were then dehydrated, cleared, fixed in paraffin, sectioned ([…]), and stained with H&E stain.

ovine COX-1 = target: T3, ovine COX-1 (Ovis aries, UniProt P05979); test: COX-1 inhibition, enzyme immune assay (EIA) kit
T3 sequence (P05979 25-600): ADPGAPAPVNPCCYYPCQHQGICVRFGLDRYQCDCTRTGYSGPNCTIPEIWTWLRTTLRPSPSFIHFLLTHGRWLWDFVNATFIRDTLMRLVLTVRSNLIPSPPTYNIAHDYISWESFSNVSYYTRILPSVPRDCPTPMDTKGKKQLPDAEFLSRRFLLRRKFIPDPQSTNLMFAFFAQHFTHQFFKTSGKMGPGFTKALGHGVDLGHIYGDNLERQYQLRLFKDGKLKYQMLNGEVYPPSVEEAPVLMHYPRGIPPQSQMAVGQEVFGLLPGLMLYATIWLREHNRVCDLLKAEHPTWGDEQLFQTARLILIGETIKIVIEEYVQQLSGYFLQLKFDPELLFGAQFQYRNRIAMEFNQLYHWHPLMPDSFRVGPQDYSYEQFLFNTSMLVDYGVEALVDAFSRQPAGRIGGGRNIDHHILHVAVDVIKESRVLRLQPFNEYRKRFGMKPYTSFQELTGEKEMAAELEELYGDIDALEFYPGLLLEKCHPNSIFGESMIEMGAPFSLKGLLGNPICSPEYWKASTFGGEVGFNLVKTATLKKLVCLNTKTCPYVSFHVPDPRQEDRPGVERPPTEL
Description: Colorimetric enzyme immunoassay (EIA) kits were done to screen for the isozyme-specific inhibition.

SMILES | antibacterial activity against E. coli [1] | S.I (IC50 COX-1/IC50 COX-2) (COX-2) | SI (COX-2) | IC50 (5-LOX enzyme) | 5-LOX %inh (5-LOX enzyme; conc 0.1 (μM)) | 5-LOX %inh (5-LOX enzyme; conc 1 (μM)) | 5-LOX %inh (5-LOX enzyme; conc 10 (μM)) | 5-LOX %inh (5-LOX enzyme; conc 100 (μM)) | IC50 (5-LOX enzyme; lab report) | stomach histopathology finding (stomach) | melting point | IC50 (ovine COX-1; IC50 COX-1) | COX1 %inh (ovine COX-1; conc 0.1 (μM)) | COX1 %inh (ovine COX-1; conc 1 (μM)) | COX1 %inh (ovine COX-1; conc 10 (μM)) | COX1 %inh (ovine COX-1; conc 100 (μM)) | zone of inhibition at 100 µg/disc ([1]; Escherichia coli, ATCC25922, read-out: diameters of inhibition zones) | IC50 (ovine COX-1; IC50 COX1, lab report / text printing uM)
COc1ccc(NC(=S)N/N=C/c2cn(S(C)(=O)=O)c3ccccc23)cc1 [Compound 4e, (E)-N-(4-Methoxyphenyl)-2{[1-(methylsulfonyl)-1H-indol 3yl]methylene}hydrazinecarbothioamide] | selective antibacterial activity | 30.17 | 30.17 | 4.08 ± 0.22 µM | 17.9% | 30.9% | 55.7% | 85% | 4.08 ± 0.22 µM | partial loss of mucous layer with mild superficial erosions | 214 to 216 °C | 24.7 ± 0.7 µM | 5.87% | 14.4% | 28.6% | 73.5% |  | 
Cc1ccc(N2C(=O)CSC2=NN=Cc2cn(S(C)(=O)=O)c3ccccc23)cc1 [Compound 5d] | exclusively exhibited bioactivity against E. coli | 8.59 and 8.60 | 8.596 | 1.1 ± 0.06 µM | 30.3% | 47.6% | 70.6% | 86.9% | 1.1 ± 0.06 µM | minimally disrupted mucous layer | 271 to 273 °C | 5.79 ± 0.16 µM | 8.83% | 27.6% | 53.7% | 83.6% | 8 to 15 mm | 5.79 ± 0.16 µM
